Reference: US6511963B1 (priority 1992, dated 2003)
Values joined by “and” are separate entries in the source; they are usually repeats but may differ in a detail not shown here. Equal values may be shown once. Read-outs that look alike come from different tables or passages of the source. Ends that are not written are not given here.

Legend:
[1] = molecular target: NMDA receptor; design: species or system rat; settings: read-out: EC50 of Gly, [3H]MK-801 binding
[2] = molecular target: T1, NMDA receptor (Rattus norvegicus, UniProt P35439+Q00960); assay: biochemical; type: binding
T1 construct: other: test compound in the absence of spermine; concentration at 50% of maximum stimulation; % Sti; spermine = 100; other: with and without spermine; absence of spermine; % STI; absence
T1 sequence (Q00960 27-1482, other chains not shown): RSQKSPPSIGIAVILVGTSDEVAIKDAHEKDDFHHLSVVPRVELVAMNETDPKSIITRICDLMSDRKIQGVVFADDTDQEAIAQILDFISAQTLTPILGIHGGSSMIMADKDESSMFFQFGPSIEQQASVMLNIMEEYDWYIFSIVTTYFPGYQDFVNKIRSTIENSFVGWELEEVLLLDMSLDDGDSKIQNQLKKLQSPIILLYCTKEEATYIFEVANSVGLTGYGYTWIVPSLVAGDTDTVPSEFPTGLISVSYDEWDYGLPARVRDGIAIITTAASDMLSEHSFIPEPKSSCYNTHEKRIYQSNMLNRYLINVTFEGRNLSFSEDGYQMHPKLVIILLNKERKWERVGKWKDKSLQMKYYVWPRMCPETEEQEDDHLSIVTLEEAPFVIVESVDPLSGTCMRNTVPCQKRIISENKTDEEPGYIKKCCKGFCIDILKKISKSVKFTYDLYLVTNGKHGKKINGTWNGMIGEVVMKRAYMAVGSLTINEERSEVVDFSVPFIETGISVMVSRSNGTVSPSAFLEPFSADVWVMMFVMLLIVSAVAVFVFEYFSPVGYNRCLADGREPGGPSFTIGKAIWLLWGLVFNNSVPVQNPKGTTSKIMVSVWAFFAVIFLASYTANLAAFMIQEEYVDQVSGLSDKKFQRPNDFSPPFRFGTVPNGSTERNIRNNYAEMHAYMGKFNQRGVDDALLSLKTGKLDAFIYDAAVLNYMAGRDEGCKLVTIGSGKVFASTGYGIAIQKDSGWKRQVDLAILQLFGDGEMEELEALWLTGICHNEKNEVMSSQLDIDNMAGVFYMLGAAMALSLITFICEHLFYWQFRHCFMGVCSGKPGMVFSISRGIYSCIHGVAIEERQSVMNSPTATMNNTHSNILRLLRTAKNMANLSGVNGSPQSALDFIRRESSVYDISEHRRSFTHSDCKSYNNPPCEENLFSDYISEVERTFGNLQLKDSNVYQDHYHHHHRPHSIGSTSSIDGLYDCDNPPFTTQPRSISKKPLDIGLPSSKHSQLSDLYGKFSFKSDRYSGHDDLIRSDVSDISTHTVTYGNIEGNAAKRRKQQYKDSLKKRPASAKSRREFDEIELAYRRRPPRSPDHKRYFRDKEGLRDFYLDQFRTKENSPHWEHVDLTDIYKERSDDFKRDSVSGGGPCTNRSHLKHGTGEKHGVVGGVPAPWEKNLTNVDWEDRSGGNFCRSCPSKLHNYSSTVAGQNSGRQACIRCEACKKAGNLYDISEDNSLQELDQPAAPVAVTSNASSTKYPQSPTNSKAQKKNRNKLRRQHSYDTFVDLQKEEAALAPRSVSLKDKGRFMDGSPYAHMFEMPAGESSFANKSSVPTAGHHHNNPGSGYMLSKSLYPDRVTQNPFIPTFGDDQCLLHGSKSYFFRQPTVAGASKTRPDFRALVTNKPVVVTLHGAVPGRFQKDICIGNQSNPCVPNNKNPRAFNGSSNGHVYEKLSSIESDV

[3] = system: NMDA receptor; type: binding, rat

Compound | Emax ([2]; read-out: % Sti) [%] | % Inh [3] [%] | % Sti [2] [%] | also measured
NCC(=O)O [Gly, glycine] | – | – | – | EC50 [1]: 0.056 µM and 0.058 µM
CC[C@H](C)[C@H](NC(=O)[C@H](CC(C)C)NC(=O)[C@H](CCC(=O)O)NC(=O)[C@H](CCC(N)=O)NC(=O)[C@H](CC(N)=O)NC(=O)[C@H](CCC(=O)O)NC(=O)[C@H](CCC(N)=O)NC(=O)[C@H](CC(C)C)NC(=O)[C@H](CCC(=O)O)NC(=O)[C@H](CCC(=O)O)NC(=O)[C@H](CCC(=O)O)NC(=O)CN)C(=O)N[C@@H](CCCNC(=N)N)C(=O)N[C@@H](CCC(=O)O)C(=O)N[C@@H](CCCCN)C(=O)N[C@@H](CO)C(=O)N[C@@H](CC(N)=O)C(N)=O [Glu3,4,7,10,14-Con-G] | 79 | 22 | – | Emax ([2]; read-out: % STI): 79%; % INH [3]: 22%; IC50 ([3]; read-out: IC50): 8.5 µM; IC50 ([3]; read-out: Spermine IC): 8.5 µM
GEggLQgNQgLIRgKSN-OH [Con-G-OH] | – | 0 | 0 | activity, inhibitory or stimulatory [2]: no activity
Y(oMe)-GEggLQgNQgLIRgKSN (YGEXXLQXNQXLIRXKSN; O-methyl tyrosine) [Tyr(oMe)^o-Con-G] | – | 0 | 0 | –
NCCCCNCCCN [Spermidine, reference compound] | 97 | 0 | – | –
QENQELIREKSN [Glu 7,10,14-Con-G (6-17)] | – | 0 | 0 | –
GEgS(p)LQgNQgLIRgKSN (GEXSLQXNQXLIRXKSN; phosphoserine) [Ser(p)4-Con-G] | – | 0 | 0 | –
CC[C@H](C)[C@H](NC(=O)[C@H](CC(C)C)NC(=O)[C@H](COP(=O)(O)O)NC(=O)[C@H](CCC(N)=O)NC(=O)[C@H](CC(N)=O)NC(=O)[C@H](CC(C(=O)O)C(=O)O)NC(=O)[C@H](CCC(N)=O)NC(=O)[C@H](CC(C)C)NC(=O)[C@H](CC(C(=O)O)C(=O)O)NC(=O)[C@H](CC(C(=O)O)C(=O)O)NC(=O)[C@H](CCC(=O)O)NC(=O)CN)C(=O)N[C@@H](CCCNC(=N)N)C(=O)N[C@@H](CC(C(=O)O)C(=O)O)C(=O)N[C@@H](CCCCN)C(=O)N[C@@H](CO)C(=O)N[C@@H](CC(N)=O)C(N)=O [Ser(p)10-Con-G, GEggLQgNQS(p)LIRgKSN] | – | 100 | – | % Sti ([2]; forebrain membranes): 0%; IC50 ([3]; read-out: IC50, inhibition of spermine-enhanced [3H]MK-801 binding): 0.56 ± 0.2 µM
CC[C@H](C)[C@H](NC(=O)[C@H](CC(C)C)NC(=O)[C@@H](CCC(=O)O)NC(=O)[C@H](CCC(N)=O)NC(=O)[C@H](CC(N)=O)NC(=O)[C@@H](CCC(=O)O)NC(=O)[C@H](CCC(N)=O)NC(=O)[C@H](CC(C)C)NC(=O)[C@@H](CCC(=O)O)NC(=O)[C@@H](CCC(=O)O)NC(=O)[C@@H](CCC(=O)O)NC(=O)CN)C(=O)N[C@@H](CCCNC(=N)N)C(=O)N[C@H](CCC(=O)O)C(=O)N[C@@H](CCCCN)C(=O)N[C@@H](CO)C(=O)N[C@@H](CC(N)=O)C(N)=O [D-Glu3,4,7,10,14-Con-G, GdEdEdELQdENQdELIRdEKSN] | 30 | 0 | – | stimulation of [3H]MK-801 binding in the absence of spermine [2]: stimulated; inhibition of spermine-induced [3H]MK-801 binding [3]: no inhibition
Ac-GEggLQgNQgLIRgKSN [Ac-Con-G] | – | 0 | 0 | activity, inhibitory or stimulatory [2]: no apparent activity
GEYgLQgNQgLIRgKSN [Tyr3-Con-G] | – | 0 | 0 | –
GEgALQgNQgLJRgKSN (GEXALQXNQXLIRXKSN; gamma-carboxyglutamate residues) [Ala4-Con-G] | – | 0 | 0 | –
F(pC1)-GEggLQgNQgLIRgKSN (FGEXXLQXNQXLIRXKSN; N-terminal p-chloro-Phe; gamma-carboxyglutamate residues) [Phe(pCl)^o-Con-G] | – | 0 | 0 | –
EEELQENQELIREKSN-NH2 [Glu3,4,7,10-Con-G(2-17)] | 33 | 70 | – | Emax ([2]; read-out: % STI): 33%; % INH [3]: 70%; IC50 ([3]; read-out: IC50): 5.4 µM; IC50 ([3]; read-out: Spermine IC): 5.4 µM
Y-GEggLQgNQgLIRgKSN [Tyr^o-Con-G] | – | 0 | 0 | –
CC[C@H](C)[C@H](NC(=O)[C@H](CC(C)C)NC(=O)[C@H](CCC(=O)O)NC(=O)[C@H](CCC(N)=O)NC(=O)[C@H](CC(N)=O)NC(=O)[C@H](CCC(=O)O)NC(=O)[C@H](CCC(N)=O)NC(=O)[C@H](CC(C)C)NC(=O)[C@H](CCC(=O)O)NC(=O)[C@H](CCC(=O)O)NC(=O)[C@H](CCC(=O)O)NC(=O)CNC(=O)[C@@H](N)Cc1ccc(O)cc1)C(=O)N[C@@H](CCCNC(=N)N)C(=O)N[C@@H](CCC(=O)O)C(=O)N[C@@H](CCCCN)C(=O)N[C@@H](CO)C(=O)N[C@@H](CC(N)=O)C(N)=O [Tyr^o-Glu3,4,7,10,14-Con-G] | 31 | 0 | – | stimulation of [3H]MK-801 binding in the absence of spermine [2]: stimulated; inhibition of spermine-induced [3H]MK-801 binding [3]: no inhibition
CC[C@H](C)[C@H](NC(=O)[C@H](CC(C)C)NC(=O)[C@H](CO)NC(=O)[C@H](CCC(N)=O)NC(=O)[C@H](CC(N)=O)NC(=O)[C@H](CC(C(=O)O)C(=O)O)NC(=O)[C@H](CCC(N)=O)NC(=O)[C@H](CC(C)C)NC(=O)[C@H](CC(C(=O)O)C(=O)O)NC(=O)[C@H](CC(C(=O)O)C(=O)O)NC(=O)[C@H](CCC(=O)O)NC(=O)CN)C(=O)N[C@@H](CCCNC(=N)N)C(=O)N[C@@H](CC(C(=O)O)C(=O)O)C(=O)N[C@@H](CCCCN)C(=O)N[C@@H](CO)C(=O)N[C@@H](CC(N)=O)C(N)=O [Ser10-Con-G, GEggLQgNQSLIRgKSN] | 0 | 100 | – | IC50 ([3]; read-out: Spermine IC): 1.8 ± 0.2 µM
